This is an account of results in patent US4902720A (priority 1988, dated 1990).

One data set concerns HSV-1 and HSV-2. The data set is classed as cell-based. The settings on record: summary.
A further data set deals with HSV-2 (333 strain). Put plainly: Plaque inhibition by HMB, HSV-2 333 strain in Vero cells (third series, Experiments 1M-1P). It counts as cell-based. The procedure:
In this experiment, 25 mg/ml HMB was tested on Vero cells infected with HSV-2. The virus control cultures, without HMB, had 705 plaque.
The number of plaque on the virus control was about 10 to 12 plaque.
In this experiment, 25 mg/ml, 20 mg/ml, and 15 mg/ml of HMB concentrations were tested on Vero cells infected with HSV-2. […] The experimental flasks had as many, or more, plaque as the control, with an average of 154 plaque for the control and 169 plaque for the HMB-treated flasks.
HMB was further tested at a concentration of 20 mg/ml of reinfected Vero cells.

A further data set concerns Vero cells. The settings on record: 25 mg/ml, 48 hours, 37° C. The procedure:
(§1) Healthy confluent monolayer cell cultures were overlaid with 1 ml of the drug and incubated for 48 hours at 37° C. and then stained. Cell cultures with maintenance media were used as controls.

A further data set has as its system RK-13 cells. The settings on record: 25 mg/ml, 48 hours, 37° C. The procedure:
as §1

The subject of data set [1] is Flow 1000 cells (foreskin cells). The settings on record: 25 mg/ml, 48 hours, 37° C. The procedure: as §1

Broadly, the inhibition is how much of the control response was suppressed. Higher therefore signals a strong effect. Regarding `C[N+](C)(C)CCCCCC[N+](C)(C)C` [HMB, hexamethonium bromide], the “in vitro replication of HSV-1 and HSV-2” value in the data set on HSV-1 and HSV-2 was “inhibit the in vitro replication of HSV-1 and HSV-2”. The “appearance of cell layer” value with HSV-2 (333 strain) (Exp. 1M, 25 mg/ml HMB) is recorded as “thin cell layer”. Moreover, the number of plaque in the data set with HSV-2 (333 strain) (Exp. 1M, 25 mg/ml HMB, control 705) is given as 142 plaque; with HSV-2 (333 strain) (Exp. 1O, 20 mg/ml HMB), “no plaque”; with HSV-2 (333 strain) (Exp. 1O, 25 mg/ml HMB, most likely due to toxicity), “no plaque”. In addition, the inhibition of plaque entry in the data set on HSV-2 (333 strain) (Exp. 1N, 20 mg/ml HMB, control about 10 to 12 plaque) is given as “complete inhibition of plaque”. Further, the effect on plaque entry in the data set on HSV-2 (333 strain) (Exp. 1O, 15 mg/ml HMB) is listed as “did not have any effect”. In addition, the “average number of plaque” value in the data set on HSV-2 (333 strain) (Exp. 1O, 15 mg/ml HMB, control 154) came out at 169 plaque. Moreover, the “toxicity to the monolayer” value in the data set on HSV-2 (333 strain) (Exp. 1O, 25 mg/ml HMB) is “toxic to the monolayer”. The inhibition at 25000 µg/mL in the data set with HSV-2 (333 strain) (Human alphaherpesvirus 2, Vero, Exp. 1M, 25 mg/ml HMB) worked out at 80%. Also, 20000 µg/mL produced 91% inhibition with HSV-2 (333 strain) (Human alphaherpesvirus 2, Vero, Exp. 1P, 20 mg/ml HMB). The toxicity result in the data set with Vero cells is reported as “no toxicity”; in the data set on RK-13 cells, “slight toxicity”; in data set [1], “no toxicity”.
